Activity calls are given as the source filed them.
Assays:
[1] = target: T1, RNA-binding protein pos-1 (Caenorhabditis elegans, UniProt G5EF15); assay: disruptors of C. elegans POS-1 RNA interaction – biochemical, fluorescence polarization, dose response (AID 1964);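 also: purified POS-1 fused to maltose binding protein made in E. coli; potency of compounds blocking POS-1 binding to fluorescent RNA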
T1 sequence (G5EF15 whole entry): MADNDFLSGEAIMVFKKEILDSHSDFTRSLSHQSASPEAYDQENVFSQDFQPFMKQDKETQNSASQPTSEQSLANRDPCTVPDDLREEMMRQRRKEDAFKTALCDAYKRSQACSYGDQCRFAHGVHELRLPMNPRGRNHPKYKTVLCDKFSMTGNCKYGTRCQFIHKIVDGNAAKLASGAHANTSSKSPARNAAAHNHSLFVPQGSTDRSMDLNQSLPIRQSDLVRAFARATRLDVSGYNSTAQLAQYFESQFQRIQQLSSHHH

[2] = target: T2, Zinc finger protein mex-5 (Caenorhabditis elegans, UniProt Q9XUB2); assay: potency of MEX-5 RNA-binding blockers – biochemical, C. elegans, fluorescence polarization, dose response (AID 1960)
T2 sequence (Q9XUB2 whole entry): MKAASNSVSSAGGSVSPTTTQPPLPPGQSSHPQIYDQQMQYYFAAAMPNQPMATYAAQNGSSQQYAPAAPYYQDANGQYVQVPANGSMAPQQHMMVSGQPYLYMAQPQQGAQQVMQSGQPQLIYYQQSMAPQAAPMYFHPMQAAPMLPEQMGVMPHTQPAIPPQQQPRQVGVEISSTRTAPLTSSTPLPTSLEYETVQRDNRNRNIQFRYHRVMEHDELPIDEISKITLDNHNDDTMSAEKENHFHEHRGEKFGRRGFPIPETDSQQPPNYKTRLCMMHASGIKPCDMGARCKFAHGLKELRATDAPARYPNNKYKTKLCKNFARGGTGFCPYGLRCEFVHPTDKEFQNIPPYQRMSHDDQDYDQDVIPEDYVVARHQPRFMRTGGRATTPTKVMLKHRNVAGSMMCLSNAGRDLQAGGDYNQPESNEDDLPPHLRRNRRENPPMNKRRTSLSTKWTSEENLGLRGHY

[3] = target: T3, Histone-lysine N-methyltransferase NSD2 (Homo sapiens, UniProt O96028); type: biochemical
T3 sequence (O96028 whole entry): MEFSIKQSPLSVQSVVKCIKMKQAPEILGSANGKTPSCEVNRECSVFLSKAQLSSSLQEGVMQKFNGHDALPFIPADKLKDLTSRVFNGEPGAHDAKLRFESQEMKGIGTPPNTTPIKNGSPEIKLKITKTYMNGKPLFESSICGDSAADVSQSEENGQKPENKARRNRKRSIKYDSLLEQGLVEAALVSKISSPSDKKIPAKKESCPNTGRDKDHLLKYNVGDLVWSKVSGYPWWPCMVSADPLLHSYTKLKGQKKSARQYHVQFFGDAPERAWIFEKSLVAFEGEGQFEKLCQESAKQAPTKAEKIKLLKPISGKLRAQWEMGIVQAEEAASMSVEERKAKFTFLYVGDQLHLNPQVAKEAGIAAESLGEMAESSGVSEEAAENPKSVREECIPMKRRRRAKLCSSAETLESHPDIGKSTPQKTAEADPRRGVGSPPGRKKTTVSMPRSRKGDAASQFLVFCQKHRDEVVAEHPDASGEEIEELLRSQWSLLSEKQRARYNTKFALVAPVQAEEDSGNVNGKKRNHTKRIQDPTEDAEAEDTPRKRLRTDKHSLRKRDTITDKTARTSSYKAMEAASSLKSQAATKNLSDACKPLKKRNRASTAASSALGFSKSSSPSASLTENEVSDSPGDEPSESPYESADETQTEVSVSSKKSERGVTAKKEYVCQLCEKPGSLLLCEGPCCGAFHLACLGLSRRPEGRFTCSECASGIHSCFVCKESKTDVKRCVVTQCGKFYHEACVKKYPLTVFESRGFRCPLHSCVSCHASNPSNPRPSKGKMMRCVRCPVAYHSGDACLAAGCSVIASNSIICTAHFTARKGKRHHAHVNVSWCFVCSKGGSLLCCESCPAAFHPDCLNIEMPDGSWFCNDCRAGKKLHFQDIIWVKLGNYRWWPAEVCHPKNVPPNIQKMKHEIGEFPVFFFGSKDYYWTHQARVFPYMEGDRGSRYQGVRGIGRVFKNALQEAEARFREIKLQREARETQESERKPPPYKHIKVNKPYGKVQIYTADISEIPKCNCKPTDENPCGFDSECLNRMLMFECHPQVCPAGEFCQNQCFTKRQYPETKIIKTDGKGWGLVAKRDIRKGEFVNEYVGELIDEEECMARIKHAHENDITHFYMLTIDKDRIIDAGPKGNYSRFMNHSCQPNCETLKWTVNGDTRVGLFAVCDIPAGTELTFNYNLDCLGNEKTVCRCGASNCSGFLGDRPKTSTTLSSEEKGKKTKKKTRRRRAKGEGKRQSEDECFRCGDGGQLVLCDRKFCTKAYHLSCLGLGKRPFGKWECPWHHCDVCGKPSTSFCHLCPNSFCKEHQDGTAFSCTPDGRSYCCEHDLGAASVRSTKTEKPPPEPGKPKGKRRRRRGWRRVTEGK

[4] = viability of uninfected HEp-2 cells – cell-based, HTS, cytotoxicity control for RSV inhibitor project, dose response (AID 2410); type: functional; details: human respiratory syncytial virus
[5] = target: Beta-galactosidase (Escherichia coli, UniProt Q8VNN2); assay: PubChem AID 485352; type: functional
Sequence of Beta-galactosidase (Q8VNN2 whole entry): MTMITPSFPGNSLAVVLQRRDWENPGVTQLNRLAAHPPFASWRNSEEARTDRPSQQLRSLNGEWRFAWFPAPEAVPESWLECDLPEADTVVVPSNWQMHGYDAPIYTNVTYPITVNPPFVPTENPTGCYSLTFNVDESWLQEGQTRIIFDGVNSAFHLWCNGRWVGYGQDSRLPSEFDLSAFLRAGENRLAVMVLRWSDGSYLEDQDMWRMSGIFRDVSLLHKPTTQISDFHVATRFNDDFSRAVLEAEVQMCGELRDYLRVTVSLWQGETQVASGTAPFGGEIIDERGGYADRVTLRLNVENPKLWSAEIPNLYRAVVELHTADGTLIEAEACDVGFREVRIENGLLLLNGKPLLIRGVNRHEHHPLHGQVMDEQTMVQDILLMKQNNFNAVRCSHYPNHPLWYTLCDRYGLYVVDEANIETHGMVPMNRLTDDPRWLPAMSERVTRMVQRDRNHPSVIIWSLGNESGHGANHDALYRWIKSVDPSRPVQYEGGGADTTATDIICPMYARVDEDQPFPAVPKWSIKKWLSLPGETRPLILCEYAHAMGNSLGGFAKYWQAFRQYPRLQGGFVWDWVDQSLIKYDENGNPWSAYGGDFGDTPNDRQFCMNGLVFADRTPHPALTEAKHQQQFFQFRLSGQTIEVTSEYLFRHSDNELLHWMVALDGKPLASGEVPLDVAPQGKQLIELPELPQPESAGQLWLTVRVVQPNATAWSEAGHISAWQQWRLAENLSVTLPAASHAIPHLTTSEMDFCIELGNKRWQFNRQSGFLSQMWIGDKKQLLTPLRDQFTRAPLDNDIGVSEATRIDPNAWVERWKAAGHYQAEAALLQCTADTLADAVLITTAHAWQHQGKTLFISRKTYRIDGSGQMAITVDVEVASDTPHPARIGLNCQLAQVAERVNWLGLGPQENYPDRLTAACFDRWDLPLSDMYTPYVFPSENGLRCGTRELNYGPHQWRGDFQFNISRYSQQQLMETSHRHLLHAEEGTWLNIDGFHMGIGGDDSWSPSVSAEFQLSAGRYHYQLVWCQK

[6] = target: T4, Type-1 angiotensin II receptor (Homo sapiens, UniProt P30556); assay: antagonism of angiotensin II type 1 receptor – cell-based, uHTS hits, selectivity assay for APJ receptor antagonist project, dose response (AID 463214); type: functional;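 also: antagonist potency against angiotensin II stimulated AT1 response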
T4 sequence (P30556 whole entry): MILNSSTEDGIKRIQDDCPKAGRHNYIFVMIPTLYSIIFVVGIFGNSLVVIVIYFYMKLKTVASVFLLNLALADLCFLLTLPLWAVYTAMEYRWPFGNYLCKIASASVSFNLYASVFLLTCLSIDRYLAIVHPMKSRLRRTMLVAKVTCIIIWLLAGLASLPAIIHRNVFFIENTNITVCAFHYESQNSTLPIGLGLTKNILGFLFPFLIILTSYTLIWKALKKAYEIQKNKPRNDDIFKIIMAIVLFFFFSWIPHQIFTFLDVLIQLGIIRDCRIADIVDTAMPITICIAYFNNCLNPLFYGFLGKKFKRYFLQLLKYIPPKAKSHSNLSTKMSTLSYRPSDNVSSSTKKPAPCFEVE

[7] = target: T5, Replicative DNA helicase DnaB (Mycobacterium tuberculosis, UniProt P9WMR3); assay: DnaB intein splicing inhibitors, dose response, biochemical, cell-free fluorescence (AID 449749); type: functional
T5 sequence (P9WMR3 whole entry): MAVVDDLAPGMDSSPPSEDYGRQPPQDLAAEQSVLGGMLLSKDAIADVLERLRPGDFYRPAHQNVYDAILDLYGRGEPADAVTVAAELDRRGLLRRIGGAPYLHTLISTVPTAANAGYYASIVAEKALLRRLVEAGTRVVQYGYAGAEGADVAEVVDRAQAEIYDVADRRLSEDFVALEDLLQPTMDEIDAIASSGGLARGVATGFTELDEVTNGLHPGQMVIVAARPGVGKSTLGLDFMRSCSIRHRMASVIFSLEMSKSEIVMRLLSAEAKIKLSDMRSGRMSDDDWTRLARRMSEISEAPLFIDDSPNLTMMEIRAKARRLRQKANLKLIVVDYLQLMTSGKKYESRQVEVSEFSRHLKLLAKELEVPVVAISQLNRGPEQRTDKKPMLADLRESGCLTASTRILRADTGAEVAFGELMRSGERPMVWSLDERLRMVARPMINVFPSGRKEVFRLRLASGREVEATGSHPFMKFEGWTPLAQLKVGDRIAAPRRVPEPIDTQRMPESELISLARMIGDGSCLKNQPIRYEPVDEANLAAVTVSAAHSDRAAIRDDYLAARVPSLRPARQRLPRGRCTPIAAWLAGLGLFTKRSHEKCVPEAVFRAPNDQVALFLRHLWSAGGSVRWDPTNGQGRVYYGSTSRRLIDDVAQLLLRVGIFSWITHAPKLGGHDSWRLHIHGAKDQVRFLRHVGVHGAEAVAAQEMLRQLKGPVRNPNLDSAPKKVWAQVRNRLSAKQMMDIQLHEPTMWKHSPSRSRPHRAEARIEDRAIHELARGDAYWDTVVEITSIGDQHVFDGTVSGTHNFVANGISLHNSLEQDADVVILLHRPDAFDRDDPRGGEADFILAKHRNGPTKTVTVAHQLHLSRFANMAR

[8] = target: T6, Protein RecA (Mycobacterium tuberculosis, UniProt P9WHJ3); assay: Fluorescence Cell-Free Homogeneous Dose Retest to Identify Inhibitors of RecA-Intein Splicing Activity. [Related pubchem assays (depositor defined):AID2097, AID2223, AID489010, AID492950]; type: functional
T6 sequence (P9WHJ3 whole entry): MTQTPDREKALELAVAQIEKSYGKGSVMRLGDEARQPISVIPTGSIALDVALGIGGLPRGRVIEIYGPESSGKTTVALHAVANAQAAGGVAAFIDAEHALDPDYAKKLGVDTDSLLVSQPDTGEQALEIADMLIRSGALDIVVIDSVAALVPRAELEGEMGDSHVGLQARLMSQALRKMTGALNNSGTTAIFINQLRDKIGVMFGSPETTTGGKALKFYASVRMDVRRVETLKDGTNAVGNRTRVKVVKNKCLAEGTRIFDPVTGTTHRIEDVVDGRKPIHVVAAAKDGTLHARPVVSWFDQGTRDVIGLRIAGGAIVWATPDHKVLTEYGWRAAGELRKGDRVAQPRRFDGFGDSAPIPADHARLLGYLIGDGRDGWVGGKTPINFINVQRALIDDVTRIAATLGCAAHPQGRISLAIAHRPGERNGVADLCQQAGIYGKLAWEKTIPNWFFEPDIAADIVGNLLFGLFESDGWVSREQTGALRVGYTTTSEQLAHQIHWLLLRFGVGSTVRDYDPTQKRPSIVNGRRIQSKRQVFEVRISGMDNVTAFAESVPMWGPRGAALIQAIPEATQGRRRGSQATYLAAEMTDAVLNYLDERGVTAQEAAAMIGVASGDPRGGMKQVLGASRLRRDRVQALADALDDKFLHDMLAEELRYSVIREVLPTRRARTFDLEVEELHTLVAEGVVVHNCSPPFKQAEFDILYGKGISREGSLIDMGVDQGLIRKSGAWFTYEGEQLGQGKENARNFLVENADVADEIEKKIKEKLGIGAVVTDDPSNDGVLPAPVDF

[9] = target: T7, Fatty acid synthase (Homo sapiens, UniProt P49327); assay: inhibition of human FAS-TE enzyme activity – biochemical, endpoint fluorescence intensity, uHTS hits, dose response (AID 624327); type: functional;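 also: fluorescence from hydrolysis of an O-methyl fluorescein acyl ester substrate by the enzyme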
T7 sequence (P49327 whole entry): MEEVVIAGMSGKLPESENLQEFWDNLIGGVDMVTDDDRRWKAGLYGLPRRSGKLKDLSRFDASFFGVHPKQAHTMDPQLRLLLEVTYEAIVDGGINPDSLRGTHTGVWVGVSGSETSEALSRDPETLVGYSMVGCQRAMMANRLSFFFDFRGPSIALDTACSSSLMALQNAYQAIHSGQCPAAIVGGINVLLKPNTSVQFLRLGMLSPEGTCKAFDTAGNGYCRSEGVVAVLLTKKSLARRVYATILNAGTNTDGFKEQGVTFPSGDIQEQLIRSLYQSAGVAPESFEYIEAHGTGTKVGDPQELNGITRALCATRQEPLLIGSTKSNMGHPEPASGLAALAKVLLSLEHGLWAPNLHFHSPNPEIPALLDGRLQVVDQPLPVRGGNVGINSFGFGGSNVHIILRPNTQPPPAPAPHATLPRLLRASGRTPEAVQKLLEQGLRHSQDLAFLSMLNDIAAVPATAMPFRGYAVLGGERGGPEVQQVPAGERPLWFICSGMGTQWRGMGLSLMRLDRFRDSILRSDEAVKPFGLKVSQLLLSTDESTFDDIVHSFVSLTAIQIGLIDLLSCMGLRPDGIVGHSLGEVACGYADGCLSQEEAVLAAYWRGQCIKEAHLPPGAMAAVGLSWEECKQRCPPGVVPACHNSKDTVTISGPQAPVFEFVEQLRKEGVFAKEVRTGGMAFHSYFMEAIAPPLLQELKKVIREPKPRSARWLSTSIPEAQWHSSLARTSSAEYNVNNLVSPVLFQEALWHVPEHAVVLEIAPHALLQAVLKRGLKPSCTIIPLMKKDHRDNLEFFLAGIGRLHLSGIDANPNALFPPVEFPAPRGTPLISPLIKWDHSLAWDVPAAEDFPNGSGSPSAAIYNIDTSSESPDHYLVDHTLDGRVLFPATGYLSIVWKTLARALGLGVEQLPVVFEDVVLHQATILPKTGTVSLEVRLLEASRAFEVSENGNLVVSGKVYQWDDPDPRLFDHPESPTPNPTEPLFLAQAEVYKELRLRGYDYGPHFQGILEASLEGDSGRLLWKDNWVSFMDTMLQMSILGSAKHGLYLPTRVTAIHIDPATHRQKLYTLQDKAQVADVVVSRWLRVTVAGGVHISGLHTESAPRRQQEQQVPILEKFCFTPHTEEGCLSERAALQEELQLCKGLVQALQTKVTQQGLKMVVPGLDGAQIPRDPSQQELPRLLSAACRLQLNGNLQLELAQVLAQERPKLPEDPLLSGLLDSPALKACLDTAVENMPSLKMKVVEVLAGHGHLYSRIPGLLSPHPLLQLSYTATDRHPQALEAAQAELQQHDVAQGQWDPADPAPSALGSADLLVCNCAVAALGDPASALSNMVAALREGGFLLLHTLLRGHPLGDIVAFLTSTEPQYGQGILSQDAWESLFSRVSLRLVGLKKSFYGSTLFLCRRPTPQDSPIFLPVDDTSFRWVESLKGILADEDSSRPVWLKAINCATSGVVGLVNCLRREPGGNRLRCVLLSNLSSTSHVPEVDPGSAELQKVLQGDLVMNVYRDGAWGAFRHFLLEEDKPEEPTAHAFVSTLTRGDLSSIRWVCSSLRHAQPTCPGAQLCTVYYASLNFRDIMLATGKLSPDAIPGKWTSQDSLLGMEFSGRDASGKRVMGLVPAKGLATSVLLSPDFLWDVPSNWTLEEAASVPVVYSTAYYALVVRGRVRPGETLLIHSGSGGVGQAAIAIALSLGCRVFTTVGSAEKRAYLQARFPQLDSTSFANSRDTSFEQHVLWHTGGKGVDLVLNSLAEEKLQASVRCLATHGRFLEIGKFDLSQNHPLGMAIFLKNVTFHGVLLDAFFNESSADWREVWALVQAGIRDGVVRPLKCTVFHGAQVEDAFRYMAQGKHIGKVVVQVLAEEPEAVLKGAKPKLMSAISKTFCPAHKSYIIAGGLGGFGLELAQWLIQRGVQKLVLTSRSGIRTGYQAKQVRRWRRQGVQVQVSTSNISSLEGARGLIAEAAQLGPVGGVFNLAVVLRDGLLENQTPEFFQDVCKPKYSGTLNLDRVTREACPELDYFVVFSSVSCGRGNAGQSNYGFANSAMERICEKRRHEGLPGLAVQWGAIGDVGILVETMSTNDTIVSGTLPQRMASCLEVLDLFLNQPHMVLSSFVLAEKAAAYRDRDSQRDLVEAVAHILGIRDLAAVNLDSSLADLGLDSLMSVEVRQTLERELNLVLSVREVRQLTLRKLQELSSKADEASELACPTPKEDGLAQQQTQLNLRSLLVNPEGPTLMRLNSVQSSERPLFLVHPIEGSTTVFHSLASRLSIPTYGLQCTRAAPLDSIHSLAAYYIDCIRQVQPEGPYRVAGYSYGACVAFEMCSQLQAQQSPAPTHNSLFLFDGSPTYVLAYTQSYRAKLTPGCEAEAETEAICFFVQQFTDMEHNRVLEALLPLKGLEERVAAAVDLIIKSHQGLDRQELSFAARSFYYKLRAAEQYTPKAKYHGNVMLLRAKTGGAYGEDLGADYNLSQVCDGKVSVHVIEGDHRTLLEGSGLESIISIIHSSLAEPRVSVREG

[10] = target: T7, Fatty acid synthase; assay: inhibition of human FAS-TE enzyme activity – biochemical, kinetic fluorescence intensity, dose response (AID 624326); type: functional;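 also: rate of fluorescence rise from hydrolysis of a fluorogenic O-methyl fluorescein ester substrate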
[11] = A549 cell cytotoxicity, dose response, cytotoxicity control, plate reader, cherry-pick, antagonist series (AID 743412); type: functional, cell-based
[12] = blockers of bursicon-stimulated LGR2 cAMP reporter – cell-based, HEK293, CRE-luciferase reporter, cherry pick, set 2, dose response (AID 743343); type: functional;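 also: transfected cells were stimulated with diluted bursicon conditioned medium after compound addition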
[13] = blockade of melanocortin 4 receptor signaling – cell-based, plate reader, cherry pick, counter-screen for LGR2 antagonist project, dose response (AID 743444); type: functional;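 also: transfected HEK 293 cells stimulated with alpha-MSH peptide; potency of inhibitors of the alpha-MSH evoked signal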
[14] = system: HEK293; assay: viability loss in HEK293T cells – cell-based, ATP luminescence, cherry-pick samples, cytotoxicity control, dose response (AID 687005); type: functional; details: Homo sapiens;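 also: cells exposed to compound for 48 hours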
[15] = HEK293 Cytotoxicity Assay Measured in Cell-Based System Using Plate Reader - 7071-01_Inhibitor_Dose_CherryPick_Activity_Set2.; type: functional
[16] = blockers of HIV-1 envelope-mediated cell-cell fusion – cherry-pick, dose response (AID 652057); type: functional, cell-based
[17] = target: Paired box protein Pax-8 (Homo sapiens, UniProt Q06710); assay: PAX8 transcriptional activity inhibition in RMG-I – RMG-I cells, luciferase, cherry-pick, dose response (AID 687027); type: functional, cell-based;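 also: luciferase reporter driven by Pax8 target thyroperoxidase promoter measured by SteadyGlo luminescence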
Sequence of Paired box protein Pax-8 (Q06710 whole entry, the tested form may be a part): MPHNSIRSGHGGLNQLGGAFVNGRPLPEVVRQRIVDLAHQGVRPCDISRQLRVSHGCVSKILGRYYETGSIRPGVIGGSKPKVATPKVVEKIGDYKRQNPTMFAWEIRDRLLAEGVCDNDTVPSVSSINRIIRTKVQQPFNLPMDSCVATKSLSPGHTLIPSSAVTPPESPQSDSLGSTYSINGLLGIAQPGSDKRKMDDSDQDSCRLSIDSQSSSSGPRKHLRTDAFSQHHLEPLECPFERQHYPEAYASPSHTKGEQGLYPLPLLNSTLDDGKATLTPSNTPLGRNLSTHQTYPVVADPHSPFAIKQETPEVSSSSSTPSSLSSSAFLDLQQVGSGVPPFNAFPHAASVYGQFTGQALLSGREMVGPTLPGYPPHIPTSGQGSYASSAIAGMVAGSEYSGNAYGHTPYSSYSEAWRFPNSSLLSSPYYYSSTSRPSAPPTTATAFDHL

[18] = HIV-1 AD8 envelope cell-cell fusion blockers – cherry-pick, dose response (AID 652062); type: functional, cell-based;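 also: luciferase signal from cell-cell fusion driven by HIV-1 clade B AD8 Env; potency is for inhibitors of fusion seen as a drop in luminescence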
[19] = OVCAR-3 cell viability loss – plate reader, dry powder samples, PAX8 inhibitor project, dose response (AID 743044); type: functional, cell-based
[20] = OVCAR8 cell viability loss – plate reader, dry powder samples, PAX8 project, dose response (AID 743197); type: functional, cell-based; details: OVCAR-8
[21] = target: Disintegrin and metalloproteinase domain-containing protein 17 (Homo sapiens, UniProt P78536); assay: inhibition of ADAM17 substrate cleavage – biochemical, quenched FRET substrate, counter-screen for ADAM10 exosite inhibitor project, dose response (AID 743253)
[22] = target: Cytochrome P450 2D6 (Homo sapiens, UniProt P10635);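 also: CYP2D6 member of a cytochrome P450 panel assay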
Sequence of Cytochrome P450 2D6 (P10635 whole entry): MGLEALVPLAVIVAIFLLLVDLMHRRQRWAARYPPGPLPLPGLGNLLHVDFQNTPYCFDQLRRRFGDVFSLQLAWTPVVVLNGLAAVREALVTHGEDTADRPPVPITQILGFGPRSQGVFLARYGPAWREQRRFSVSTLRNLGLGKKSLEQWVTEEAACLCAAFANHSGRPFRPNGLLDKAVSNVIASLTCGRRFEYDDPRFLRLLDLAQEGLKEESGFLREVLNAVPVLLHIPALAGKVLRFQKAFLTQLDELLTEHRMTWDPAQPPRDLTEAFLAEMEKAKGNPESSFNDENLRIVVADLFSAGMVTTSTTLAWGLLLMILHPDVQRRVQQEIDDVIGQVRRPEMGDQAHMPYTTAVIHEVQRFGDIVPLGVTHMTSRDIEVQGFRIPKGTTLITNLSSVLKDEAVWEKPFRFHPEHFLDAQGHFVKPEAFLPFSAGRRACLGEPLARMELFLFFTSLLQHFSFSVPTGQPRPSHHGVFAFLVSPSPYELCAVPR

[23] = target: Cytochrome P450 2C9 (Homo sapiens, UniProt P11712)
Sequence of Cytochrome P450 2C9 (P11712 whole entry): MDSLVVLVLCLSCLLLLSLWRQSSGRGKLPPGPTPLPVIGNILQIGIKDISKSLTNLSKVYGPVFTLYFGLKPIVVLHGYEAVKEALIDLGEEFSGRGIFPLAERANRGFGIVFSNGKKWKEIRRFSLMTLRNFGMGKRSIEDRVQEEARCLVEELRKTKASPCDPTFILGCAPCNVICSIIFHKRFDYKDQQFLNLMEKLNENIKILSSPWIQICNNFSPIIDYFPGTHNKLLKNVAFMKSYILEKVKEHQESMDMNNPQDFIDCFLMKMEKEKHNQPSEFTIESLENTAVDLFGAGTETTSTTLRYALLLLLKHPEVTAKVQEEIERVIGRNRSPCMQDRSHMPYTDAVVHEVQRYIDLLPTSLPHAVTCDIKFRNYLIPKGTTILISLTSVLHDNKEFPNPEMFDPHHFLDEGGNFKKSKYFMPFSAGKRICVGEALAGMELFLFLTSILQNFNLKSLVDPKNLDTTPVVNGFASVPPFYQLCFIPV

SMILES: N#CC(C#N)=Cc1cccn1-c1ccc(C(=O)O)cc1
- EC50 [1]: > 300 µM (not active)
- EC50 [2]: 160 µM (active)
- AC50 [3]: > 20 µM (inactive)

SMILES: CCCSc1cc(NCCOC(=O)CCC)c([N+](=O)[O-])c2nonc12
- CC50 [4]: 14.8 µM (active)
- EC50 [5]: > 40 µM (inactive)
- IC50 [6]: 11 µM (active)
- AC50 [7]: 55 µM (active)
- EC50 [8]: 4.48 µM (active)
- IC50 [9]: 16.3 µM (active)
- IC50 [10]: 16.5 µM (active)

SMILES: Cc1ccccc1C(=O)Nc1ccc2c(c1)OCCO2
- AC50 [11]: > 52 µM (inactive)
- AC50 [12]: 10.5 µM (active)
- AC50 [13]: 11.1 µM (active)

SMILES: C[C@H]1CCCCO[C@H](CN(C)Cc2ccncc2)[C@@H](C)CN([C@@H](C)CO)C(=O)c2cc(NC(=O)CCCN(C)C)ccc2O1
- AC50 [14]: 38.1 µM (active)
- AC50 [15]: 38.1 µM (active)

SMILES: O=C(Nc1ccc(C(F)(F)F)cc1)Nc1ccc2c(c1)[C@@H]1C[C@H](CC(=O)N3CCc4ccccc4C3)O[C@H](CO)[C@@H]1O2
- AC50 [16]: 14.2 µM (active)
- AC50 [17]: 9.5 µM (active)
- AC50 [18]: 18.5 µM (active)
- AC50 [19]: 34.4 µM (active)
- AC50 [20]: 48.6 µM (active)

SMILES: O=C(C[C@H]1CC[C@@H]2[C@H](COC[C@@H](O)CN2S(=O)(=O)c2cccc(Cl)c2)O1)Nc1ccc(-c2ccccc2)cc1
- AC50 [17]: 8.33 µM (active)
- AC50 [20]: > 70 µM (inactive)

SMILES: COc1cc(/C=N/O)cc(Br)c1OCc1ccc(Cl)cc1
- IC50 [21]: > 69.5 µM (inactive)
- AC50 [22]: 17.8 µM (inconclusive)
- AC50 [23]: inconclusive

From ChEMBL document CHEMBL1201862, “PubChem BioAssay data set” (2004)
